From ChEMBL document CHEMBL1201862, “PubChem BioAssay data set” (2004) come the findings set out here.

Molecules are shown by their SMILES.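 Growth conditions: 96-well plates. Treatment: test compound, 48 hours, 5 concentrations. Analysis: linear interpolation between bracketing concentrations; unreached endpoints set to highest concentration. GI50 is the concentration that inhibits growth by half.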 Activity calls are given as the source filed them. Cut-off read from the data, not from the text of the source: active = GI50 up to about 1.1 µM and inactive = higher. Some results are limits rather than exact numbers.

Some test systems named below: NCI-H226; SK-OV-3; RXF 393; RPMI-8226; HOP-62; HCT-15; OVCAR-8; Malme-3M; MOLT-4; OVCAR-5; SF-539; M14; SW-620; KM12; SK-MEL-5; HOP-92; SR; SNB-19.
Common to all, as to assay: NCI anticancer screen, dose series, 48 h

In the case of `CCc1cccc(C)c1NS(=O)(=O)c1ccccc1`, the GI50 in the assay on NCI-H226 was 24.3 µM (inactive); with SK-OV-3 it was > 100 µM (inactive); in the assay on RXF 393, > 100 µM (inactive); with RPMI-8226, > 100 µM (inactive); in the assay on HOP-62 it was > 100 µM (inactive); with HCT-15 it was > 100 µM. The GI50 in the assay on OVCAR-8, in the assay with Malme-3M, in the assay on MOLT-4, with OVCAR-5, in the assay on SF-539 and in the assay with M14 was > 100 µM (inactive) in each case. The GI50 with SW-620, with KM12 and in the assay on SK-MEL-5 was > 100 µM (inactive) each time.
As to `COc1cc(=O)oc(/C=C/CO)c1C`, the GI50 in the assay with HOP-92, with NCI-H226, in the assay with SR, with SK-OV-3, in the assay with RXF 393 and with HOP-62 was > 100 µM (inactive) in each case. Besides, the GI50 with OVCAR-8, in the assay on Malme-3M, in the assay on MOLT-4, in the assay with OVCAR-5, in the assay on SF-539 and in the assay on SNB-19 was > 100 µM (inactive) throughout. Besides, the GI50 in the assay with M14, in the assay on SW-620, with KM12 and in the assay on SK-MEL-5 was > 100 µM (inactive) each time.
For `O=C(c1ccccc1)[C@H]1Nc2ccc(Cl)cc2C2c3ccccc3CC21` (stereo not given in full), the GI50 in the assay on NCI-H226 was 36.7 µM (inactive); in the assay on SR, 71.6 µM (inactive); in the assay with RXF 393 it was 10.5 µM (inactive); with RPMI-8226, > 100 µM (inactive); with HOP-62 it was 46.1 µM (inactive); with HCT-15, 60 µM. Also, the GI50 was 53.8 µM (inactive) in the assay with OVCAR-8; > 10 µM (inactive) in the assay on Malme-3M; 11.9 µM (inactive) in the assay with MOLT-4; > 100 µM (inactive) with OVCAR-5; > 100 µM (inactive) in the assay on SF-539; > 100 µM (inactive) in the assay with SNB-19. In addition, the GI50 in the assay on M14 is 31.6 µM (inactive); in the assay with SW-620, 50.5 µM (inactive); in the assay on KM12, > 100 µM (inactive); in the assay on SK-MEL-5 it was 21.3 µM (inactive).
On to `COC(=O)c1csnn1`, for which the GI50 in the assay with NCI-H226 was > 100 µM (inactive); in the assay with SR, > 100 µM (inactive); in the assay on SK-OV-3 it was > 100 µM (inactive); in the assay on RPMI-8226 it was > 100 µM (inactive); with HOP-62 it was > 100 µM (inactive); with HCT-15, > 100 µM. The GI50 with OVCAR-8, with Malme-3M, in the assay with MOLT-4, in the assay with SF-539, in the assay with SNB-19 and with M14 was > 100 µM (inactive) throughout. Moreover, the GI50 in the assay with SW-620, in the assay with KM12 and in the assay with SK-MEL-5 was > 100 µM (inactive) throughout.
As for `N#Cc1nc(Nc2cccc3ccccc23)sc1N`, the GI50 with HOP-92 is 21.1 µM (inactive); with NCI-H226, 41.8 µM (inactive); with SR, 3.05 µM (inactive); with SK-OV-3 it was 38 µM (inactive); in the assay on RPMI-8226 it was 11.9 µM (inactive); with HOP-62, 33.3 µM (inactive). Also, the GI50 in the assay on HCT-15 is 29.5 µM; with OVCAR-8, 31.4 µM (inactive); in the assay on Malme-3M, 26.2 µM (inactive); in the assay on MOLT-4, 11.5 µM (inactive); with OVCAR-5, 68.9 µM (inactive); in the assay on SF-539, 23.2 µM (inactive). Moreover, the GI50 with SNB-19 is 38.8 µM (inactive); with M14, 39.9 µM (inactive); with SW-620, 41.2 µM (inactive); with KM12, 30.2 µM (inactive).
As to `COc1ccc(CC2c3c(cc(OC)c(OC)c3OC)CCN2C)cc1OC` (stereo not given), the GI50 in the assay on RPMI-8226 is > 100 µM (inactive); in the assay with HOP-62, > 100 µM (inactive); with HCT-15, > 100 µM; in the assay on OVCAR-8 it was > 100 µM (inactive); with Malme-3M, > 100 µM (inactive); with MOLT-4 it was > 100 µM (inactive). Also, the GI50 in the assay on OVCAR-5, in the assay on SF-539, in the assay with SNB-19, in the assay with M14, in the assay with SW-620 and with KM12 was > 100 µM (inactive) each time. Further, the GI50 in the assay with SK-MEL-5 is > 100 µM (inactive).
On to `CC1=C(C(=O)CC(=O)C(=O)Nc2cc(C)ccc2C)Sc2ccccc2N1`, for which the GI50 is 85.7 µM (inactive) in the assay on HOP-92; > 100 µM (inactive) in the assay with NCI-H226; > 100 µM (inactive) in the assay with SK-OV-3; > 100 µM (inactive) in the assay with RXF 393; > 100 µM (inactive) in the assay on RPMI-8226; > 100 µM (inactive) in the assay with HOP-62. Also, the GI50 in the assay with HCT-15 was > 100 µM; in the assay on OVCAR-8, 66.8 µM (inactive); in the assay on Malme-3M, > 100 µM (inactive); in the assay with MOLT-4, 66.7 µM (inactive); in the assay on OVCAR-5, > 100 µM (inactive); with SF-539, > 100 µM (inactive). The GI50 in the assay with SNB-19, with M14, with SW-620, in the assay with KM12 and in the assay on SK-MEL-5 was > 100 µM (inactive) in each case.
For `COc1cc2ccnc3c(=C(SC)SC)c(=O)c(c1OC)c23`, the GI50 is 5.64 µM (inactive) in the assay on HOP-92; > 100 µM (inactive) in the assay with SK-OV-3; 13 µM (inactive) in the assay with RXF 393; 3.29 µM (inactive) in the assay on RPMI-8226; > 100 µM (inactive) with HOP-62; 11.9 µM with HCT-15. Moreover, the GI50 in the assay with OVCAR-8 was 10.6 µM (inactive); with Malme-3M, 11.4 µM (inactive); in the assay on MOLT-4 it was 4.6 µM (inactive); with OVCAR-5 it was 20.9 µM (inactive); in the assay on SF-539, 17.4 µM (inactive); in the assay with SNB-19 it was 53.2 µM (inactive). In addition, the GI50 in the assay on M14 was 13.9 µM (inactive); with SW-620 it was 15.7 µM (inactive); in the assay on KM12, 22.4 µM (inactive); with SK-MEL-5, > 10 µM (inactive).
As for `COc1ccc2nc3cc(Cl)ccc3c(Sc3ccccc3[N+](=O)[O-])c2c1`, the GI50 in the assay with HOP-92 was 90.2 µM (inactive); in the assay on NCI-H226, 17.7 µM (inactive); with SR, > 100 µM (inactive); in the assay on SK-OV-3 it was 58.1 µM (inactive); in the assay with RXF 393, 49.5 µM (inactive); in the assay with HOP-62 it was 69 µM (inactive). Also, the GI50 with HCT-15 is > 100 µM; in the assay on OVCAR-8 it was > 100 µM (inactive); in the assay on Malme-3M, > 100 µM (inactive); in the assay on MOLT-4, > 100 µM (inactive); in the assay with OVCAR-5 it was > 100 µM (inactive); in the assay on SF-539, 58.1 µM (inactive). For the same molecule, the GI50 with SNB-19, with M14, in the assay with SW-620, in the assay with KM12 and in the assay on SK-MEL-5 was > 100 µM (inactive) each time.
For `CCCn1c(SCCSc2c3ccccc3c(-c3nc(F)nc(F)n3)n2CCC)c2ccccc2c1-c1nc(F)nc(F)n1`, the GI50 with HOP-92 is > 100 µM (inactive); with SR it was 27 µM (inactive); with SK-OV-3, > 100 µM (inactive); in the assay with RXF 393, > 100 µM (inactive); in the assay on RPMI-8226, 27.3 µM (inactive); in the assay on HOP-62 it was > 100 µM (inactive). The GI50 in the assay on HCT-15 was > 100 µM; in the assay on OVCAR-8, > 100 µM (inactive); in the assay on Malme-3M it was > 100 µM (inactive); with MOLT-4, > 100 µM (inactive); in the assay on OVCAR-5 it was > 100 µM (inactive); in the assay with SF-539, 38.6 µM (inactive). Moreover, the GI50 with SNB-19 is > 100 µM (inactive); in the assay on M14, > 100 µM (inactive); with SW-620 it was 13.8 µM (inactive); in the assay on KM12, > 100 µM (inactive).
On to `O=[N+]([O-])c1cc([N+](=O)[O-])c(/C=C/c2ccc(Cl)c(Cl)c2)cc1/C=C/c1ccc(Cl)c(Cl)c1`, for which the GI50 in the assay with NCI-H226 was 24.6 µM (inactive); in the assay with SK-OV-3, 64.6 µM (inactive); in the assay on RXF 393 it was 20.8 µM (inactive); in the assay on RPMI-8226 it was 19.3 µM (inactive); in the assay on HCT-15 it was 21.2 µM; with OVCAR-8, 29.2 µM (inactive). Also, the GI50 is 25.2 µM (inactive) in the assay on Malme-3M; 23.2 µM (inactive) in the assay with MOLT-4; 36.1 µM (inactive) in the assay on OVCAR-5; 21.9 µM (inactive) in the assay with SF-539; 25.6 µM (inactive) in the assay with SNB-19; 23.1 µM (inactive) with M14. Also, the GI50 in the assay with SW-620 was 28.2 µM (inactive); in the assay on KM12 it was 18.5 µM (inactive); in the assay on SK-MEL-5, 18.9 µM (inactive).
Regarding `CN1C/C(=C\C=C\c2ccccc2)C(=O)/C(=C/C=C/c2ccccc2)C1`, the GI50 in the assay on NCI-H226 was > 100 µM (inactive); with SK-OV-3, > 100 µM (inactive); in the assay with RXF 393 it was > 100 µM (inactive); in the assay with RPMI-8226 it was > 100 µM (inactive); with HOP-62, > 100 µM (inactive); in the assay with HCT-15 it was > 100 µM. Further, the GI50 in the assay on OVCAR-8 is 82.2 µM (inactive); with Malme-3M, > 100 µM (inactive); in the assay on MOLT-4, 40.3 µM (inactive); in the assay on OVCAR-5, > 100 µM (inactive); with SF-539 it was > 100 µM (inactive); in the assay on SNB-19, 39.6 µM (inactive). Further, the GI50 in the assay on M14, in the assay on SW-620, with KM12 and in the assay with SK-MEL-5 was > 100 µM (inactive) in each case.
Consider `Cc1ccc(SC2C(C)(C)N(C(C)C)P2(=O)N(C(C)C)C(C)C)cc1` (stereo not given), for which the GI50 in the assay with HOP-92 is 5.58 µM (inactive); in the assay with NCI-H226, > 100 µM (inactive); in the assay on SR, 14.2 µM (inactive); in the assay with SK-OV-3 it was > 100 µM (inactive); in the assay with RPMI-8226, 9.35 µM (inactive); in the assay with HOP-62, > 100 µM (inactive). In addition, the GI50 with HCT-15 is 62.8 µM; in the assay on OVCAR-8 it was 45.5 µM (inactive); in the assay on Malme-3M it was > 32.3 µM (inactive); in the assay on MOLT-4, 30.2 µM (inactive); in the assay with OVCAR-5 it was > 100 µM (inactive); in the assay on SF-539, > 88.9 µM (inactive). The GI50 with SNB-19 was 51.5 µM (inactive); in the assay with M14, 71.4 µM (inactive); in the assay with SW-620, > 25.5 µM (inactive); with KM12, > 100 µM (inactive); in the assay on SK-MEL-5, 22.4 µM (inactive).
